From patent US10543208B2, “Treatment of gliomas using organonitro compound combination therapy” (priority 2015, dated 2020)

Tested on: temozolomide-resistant EGFRvIII/Arfko GBM (NSCG) cells
Test: Survival of mice after intracranial injection of NSCG tumors
Type: in vivo, FVBN mice
Settings: ABDNAZ 10 mg/kg intraperitoneal, temozolomide 40 mg/kg oral gavage
Protocol: Mice implanted with temozolomide-resistant EGFRvIII/Arfko GBM (NSCG) cells were treated with (i) ABDNAZ (RRx-001, 10 mg/kg, intraperitoneal injection), (ii) temozolomide (TMZ)(40 mg/kg, oral gavage), or (iii) ABDNAZ (10 mg/kg, intraperitoneal injection) and temozolomide (40 mg/kg, oral gavage).
NSCG tumors were intracranially injected into FVBN mice. Mice to be treated were treated with one of the following (i) ABDNAZ (10 mg/kg, intraperitoneal injection), (ii) temozolomide (40 mg/kg, oral gavage), or (iii) ABDNAZ (10 mg/kg, intraperitoneal injection) and temozolomide (40 mg/kg, oral gavage). In a first experiment, treatment (i.e., administration of ABDNAZ (RRx-001), temozolomide (TMZ), or both ABDNAZ and temozolomide) was started five days after intracranial injection of NSCG cells. The control population of mice contained ten mice, the group receiving only ABDNAZ had twelve mice, the group receiving only temozolomide had twelve mice, and the group receiving both ABDNAZ and temozolomide had sixteen mice. Mouse survival was monitored over time.
In a second experiment, treatment (i.e., administration of ABDNAZ (RRx-001), temozolomide (TMZ), or both ABDNAZ and temozolomide) was started ten days after intracranial injection of NSCG cells. The control population of mice contained three mice, the group receiving only ABDNAZ had five mice, the group receiving only temozolomide had four mice, and the group receiving both ABDNAZ and temozolomide had six mice. Mouse survival was monitored over time.

[1] = treatment started five days after intracranial injection of NSCG cells, control 22.2
[2] = treatment started ten days after intracranial injection of NSCG cells, control 22.1

Compound | Median Survival Time [1] | Median Survival Time [2]
Cn1nnc2c(C(N)=O)ncn2c1=O [TMZ, 3,4-dihydro-3-methyl-4-oxoimidazo[5,1-d]-as-tetrazine-8-carboxamide] | 22.3 days | 22.3 days
O=C(CBr)N1CC([N+](=O)[O-])([N+](=O)[O-])C1 [ABDNAZ] | 25.3 days | 22.5 days
